Experimental data reported in patent publication US6028110A, “Succinyl hydroxamic acid, N-formyl-N-hydroxy amino carboxylic acid and succinic acid amide derivatives as metalloprotease inhibitors” (British Biotech Pharmaceuticals Ltd., priority 1994, dated 2000).
Structures can show the parent of a compound that is named as a salt.

How the values were obtained:
[1] = system: collagenase; test: Inhibition of collagenase (acetylated 14C collagen, Cawston and Barrett); format: biochemical; details: 37°, 16 hours, pH 7.5
Protocol: The collagen was acetylated ^14 C collagen prepared by the method of Cawston and Murphy, (Methods in Enzymology, 80, 711, 1981), hereby incorporated by reference. The samples were centrifuged to sediment undigested collagen, and an aliquot of the radioactive supernatant removed for assay on a scintillation counter as a measure of hydrolysis. […] For weak inhibitors, the percentage inhibition (% I) at a concentration of 100 μM is given.

[2] = system: human PUMP-1 (matrilysin); test: Inhibition of human PUMP-1 (matrilysin) ([14C]-casein degradation assay); format: biochemical; details: 16 hours at 37° C, recombinant human PUMP-1 expressed in CHO cells
Protocol: Recombinant human PUMP-1 was expressed in CHO cells and purified by heparin-agarose and Procion Red chromatography. A [^14 C]-casein degradation assay was used to measure PUMP-1 activity. […] The incubation was terminated by addition of trichloroacetic acid (final concentration 10%) and the substrate was separated from the TCA-soluble degradation products by centrifugation at 10,000 g for 15 minutes. […] The inhibitors were dissolved and diluted in DMSO. […] For weak inhibitors, the percentage inhibition (% I) at a concentration of 100 μM is given.

SMILES | Collagenase % Inhibition @ 100 μM [1] | PUMP % Inhibition @ 100 μM [2]
CCCCCCCCCCCC[C@H](CC(=O)O)C(=O)N[C@@H](Cc1ccccc1)C(=O)NC [Comparator Example A, 3R-(1S-Methylcarbamoyl-2-phenyl-ethylcarbamoyl)-pentadecanoic acid] | 30 % I | 10 % I
CCCCCCCCCCCCCCCC[C@H](CC(=O)O)C(=O)N[C@@H](Cc1ccccc1)C(=O)NC [Example 1, 3R-(1S-Methylcarbamoyl-2-phenyl-ethylcarbamoyl)nonadecanoic acid (dicyclohexylamine salt)] | 0 % I | 20 % I
